What was measured:
Format in all cases: cell-based
[1] = tested on: cardiac fibroblast RAT-iCell-C002; assay: Anti-fibrosis activity test: inhibition of proliferation of cardiac fibroblast RAT-iCell-C002 (CCK-8); conditions: Cardiac fibroblast, 48 h, cardiac fibroblast RAT-iCell-C002, CCK-8, 48 hours
Method in brief: (§1)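 Seed 2×10^4 cells/mL; adhere 24 h, 37° C/5% CO2. Compounds, serial concentrations, triplicate, 48 h. CCK-8 2 h, A450. IR=(1−Ai/Ao)×100% vs blank; IC50 fitted. Pirfenidone as positive control.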

[2] = tested on: human fibrosarcoma cells HT-1080; assay: Anti-fibrosis activity test: inhibition of proliferation of human fibrosarcoma cells HT-1080 (CCK-8); conditions: Homo sapiens, HT-1080, 48 h, human fibrosarcoma cells HT-1080, CCK-8, 48 hours
Method in brief: as §1

[3] = tested on: human dermal fibroblasts CCC-ESF-1; assay: Anti-fibrosis activity test: inhibition of proliferation of human dermal fibroblasts CCC-ESF-1 (CCK-8); conditions: Fibroblast; human dermal fibroblasts CCC-ESF-1, CCK-8, 48 hours
Method in brief: as §1

[4] = tested on: human lung fibroblasts HFL1; assay: Anti-fibrosis activity test: inhibition of proliferation of human lung fibroblasts HFL1 (CCK-8); conditions: Homo sapiens, HFL1, 48 h, human lung fibroblasts HFL1, CCK-8, 48 hours
Method in brief: as §1

[5] = tested on: human hepatic stellate cells LX-2; assay: Anti-fibrosis activity test: inhibition of proliferation of human hepatic stellate cells LX-2 (CCK-8); conditions: Homo sapiens, 48 h, human hepatic stellate cells LX-2, CCK-8, 48 hours
Method in brief: as §1

[6] = tested on: human embryonic lung fibroblast IMR-90; assay: Anti-fibrosis activity test: inhibition of proliferation of human embryonic lung fibroblast IMR-90 (CCK-8); conditions: human embryonic lung fibroblast IMR-90, CCK-8, 48 hours
Method in brief: as §1

[7] = tested on: mouse macrophages (RAW264.7); assay: Lipopolysaccharide-induced NO secretion in macrophages (Griess); conditions: Mus musculus, RAW264.7, 24 h, RAW264.7, LPS 1 μg/ml, a/b isomers given as first/second symbol, read-out: IC50 (μM), inhibition of lipopolysaccharide-induced NO secretion in macrophages
Method in brief: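 LPS 1 μg/ml, 24 h, RAW264.7 (DMEM/10% FBS); cpds at varied concs. Supernatant NO by Griess, A548; % inhibition vs blank medium.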

[8] = tested on: NF-κB; assay: Immunological activity test: inhibition of NF-κB activity; conditions: initial concentration of 30 μM; a/b isomers given as first/second symbol; read-out: IC50 (μM), inhibitory activity against NF-κB
Method in brief: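 Parthenolide as positive control; starting test concentration 30 μM; inhibition of NF-κB activity analysed further to yield IC50.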

[9] = tested on: BHK-21 cells; assay: Anti-fibrosis activity test: inhibition of BHK-21 cell proliferation (CCK-8); conditions: Mesocricetus auratus, BHK-21, 48 h, CCK-8, 48 hours after administration
Method in brief: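 Cells seeded at 2×10^4 cells/mL, allowed to adhere 24 hours, then exposed to graded compound concentrations in triplicate for 48 hours at 37° C, 5% CO2. CCK-8 added for 2 hours, absorbance read at 450 nm; inhibition versus blank control used to derive IC50. Pirfenidone served as positive control.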

Row | Structure (SMILES) | IC50 [2] [mM] | IC50 [7] [µM] | IC50 [8] [µM] | IC50 [1] [mM] | IC50 [3] [mM] | IC50 [4] [mM] | IC50 [5] [mM] | IC50 [6] [mM] | IC50 [9] [mM]
1 | N#Cc1ccc2c(=O)c3c([nH]c2c1)-c1cccn1C3=O [Compound 512a, 9,10-Dioxo-4,10-dihydro-9H-pyrrolizino[1,2-b]quinoline-6-carbonitrile] | 0.05 to 5 | 1 to 10 | 1 to 10 | 0.05 to 5 | 0.05 to 5 | 0.05 to 5 | < 0.05 | 0.05 to 5 | 0.05 to 5
2 | N#Cc1ccc2c(O)c3c(nc2c1)-c1cccn1C3=O [Compound 512b, 9-hydroxy-10-oxo-10H-pyrrolizino[1,2-b]quinoline-6-carbonitrile] | 0.05 to 5 | 1 to 10 | 10 to 50 | 0.05 to 5 | 0.05 to 5 | 0.05 to 5 | < 0.05 | 0.05 to 5 | 0.05 to 5
3 | O=C1c2c([nH]c3cc(O)ccc3c2=O)-c2cccn21 [Compound 524a, 6-Hydroxy-9H-pyrrolizino[1,2-b]quinoline-9,10(4H)-dione] | 0.05 to 5 | 0.1 to 1 | 0.1 to 1 | 0.05 to 5 | 0.05 to 5 | 0.05 to 5 | 0.05 to 5 | 0.05 to 5 | 0.05 to 5
4 | O=C1c2c(nc3cc(O)ccc3c2O)-c2cccn21 [Compound 524b, 6,9-dihydroxy-10H-pyrrolizino[1,2-b]quinolin-10-one] | 0.05 to 5 | 1 to 10 | 10 to 50 | 0.05 to 5 | 0.05 to 5 | 0.05 to 5 | 0.05 to 5 | 0.05 to 5 | 0.05 to 5
5 | O=C1c2c([nH]c3cc(C(F)(F)F)ccc3c2=O)-c2cccn21 [Compound 536a, 6-(Trifluoromethyl)-9H-pyrrolizino[1,2-b]quinoline-9,10(4H)-dione] | 0.05 to 5 | 1 to 10 | 1 to 10 | 0.05 to 5 | 0.05 to 5 | 0.05 to 5 | 0.05 to 5 | 0.05 to 5 | 0.05 to 5
6 | O=C1c2c(nc3cc(C(F)(F)F)ccc3c2O)-c2cccn21 [Compound 536b, 9-hydroxy-6-(trifluoromethyl)-10H-pyrrolizino[1,2-b]quinolin-10-one] | 0.05 to 5 | 1 to 10 | 1 to 10 | 0.05 to 5 | 0.05 to 5 | 0.05 to 5 | 0.05 to 5 | 0.05 to 5 | 0.05 to 5
7 | O=C1c2c([nH]c3cc(OC(F)(F)F)ccc3c2=O)-c2cccn21 [Compound 548a, 6-(Trifluoromethoxy)-9H-pyrrolizino[1,2-b]quinoline-9,10(4H)-dione] | 0.05 to 5 | 10 to 50 | 0.1 to 1 | 0.05 to 5 | 0.05 to 5 | 0.05 to 5 | < 0.05 | 0.05 to 5 | 0.05 to 5
8 | O=C1c2c(nc3cc(OC(F)(F)F)ccc3c2O)-c2cccn21 [Compound 548b, 9-hydroxy-6-trifluoromethoxy-10H-pyrrolizino[1,2-b]quinolin-10-one] | 0.05 to 5 | 1 to 10 | 1 to 10 | 0.05 to 5 | 0.05 to 5 | 0.05 to 5 | 0.05 to 5 | 0.05 to 5 | 0.05 to 5
9 | COc1ccc2c(=O)c3c([nH]c2c1)-c1cccn1C3=O [Compound 560a, 6-Methoxy-9H-pyrrolizino[1,2-b]quinoline-9,10(4H)-dione] | 0.05 to 5 | 10 to 50 | 1 to 10 | 0.05 to 5 | 0.05 to 5 | 0.05 to 5 | 0.05 to 5 | 0.05 to 5 | 0.05 to 5
10 | COc1ccc2c(O)c3c(nc2c1)-c1cccn1C3=O [Compound 560b, 9-hydroxy-6-methoxy-10H-pyrrolizino[1,2-b]quinolin-10-one] | 0.05 to 5 | 1 to 10 | 1 to 10 | 0.05 to 5 | 0.05 to 5 | 0.05 to 5 | 0.05 to 5 | 0.05 to 5 | 0.05 to 5

The next lines start with results.

Row | IC50 [2] [mM] | IC50 [7] [µM] | IC50 [8] [µM] | Structure (SMILES) | IC50 [1] [mM] | IC50 [3] [mM] | IC50 [4] [mM] | IC50 [5] [mM] | IC50 [6] [mM] | IC50 [9] [mM]
11 | 0.05 to 5 | 0.1 to 1 | 0.001 to 0.1 | O=C1c2c(n(Cc3ccc(F)cc3Cl)c3ccccc3c2=O)-c2cccn21 [Compound 572a, 4-(2-Chloro-4-fluorobenzyl)-9H-pyrrolizino[1,2-b]quinoline-9,10(4H)-dione] | 0.05 to 5 | 0.05 to 5 | 0.05 to 5 | 0.05 to 5 | 0.05 to 5 | 0.05 to 5
12 | 0.05 to 5 | 1 to 10 | 1 to 10 | O=C1c2c(nc3ccccc3c2OCc2ccc(F)cc2Cl)-c2cccn21 [Compound 572b, 9-((2-chloro-4-fluorobenzyl)oxy)-10H-pyrrolizino[1,2-b]quinolin-10-one] | 0.05 to 5 | 0.05 to 5 | 0.05 to 5 | 0.05 to 5 | 0.05 to 5 | 0.05 to 5
13 | 0.05 to 5 | 1 to 10 | 1 to 10 | O=C1c2c(n(Cc3cc(F)ccc3F)c3ccccc3c2=O)-c2cccn21 [Compound 573a, 4-(2,5-Difluorobenzyl)-9H-pyrrolizino[1,2-b]quinoline-9,10(4H)-dione] | 0.05 to 5 | 0.05 to 5 | 0.05 to 5 | 0.05 to 5 | < 0.05 | 0.05 to 5
14 | 0.05 to 5 | 0.1 to 1 | 1 to 10 | O=C1c2c(nc3ccccc3c2OCc2cc(F)ccc2F)-c2cccn21 [Compound 573b, 9-((2,5-difluorobenzyl)oxy)-10H-pyrrolizino[1,2-b]quinolin-10-one] | < 0.05 | 0.05 to 5 | 0.05 to 5 | 0.05 to 5 | 0.05 to 5 | 0.05 to 5
15 | 0.05 to 5 | 1 to 10 | 1 to 10 | Cc1ccccc1Cn1c2c(c(=O)c3ccccc31)C(=O)n1cccc1-2 [Compound 574a, 4-(2-Methylbenzyl)-9H-pyrrolizino[1,2-b]quinoline-9,10(4H)-dione] | 0.05 to 5 | 0.05 to 5 | 0.05 to 5 | 0.05 to 5 | 0.05 to 5 | 0.05 to 5
16 | 0.05 to 5 | 10 to 50 | 1 to 10 | Cc1ccccc1COc1c2c(nc3ccccc13)-c1cccn1C2=O [Compound 574b, 9-((2-methylbenzyl)oxy)-10H-pyrrolizino[1,2-b]quinolin-10-one] | 0.05 to 5 | 0.05 to 5 | 0.05 to 5 | 0.05 to 5 | 0.05 to 5 | 0.05 to 5
17 | 0.05 to 5 | 1 to 10 | 0.1 to 1 | O=C1c2c(n(Cc3ccc(I)cc3)c3ccccc3c2=O)-c2cccn21 [Compound 575a, 4-(4-Iodobenzyl)-9H-pyrrolizino[1,2-b]quinoline-9,10(4H)-dione] | 0.05 to 5 | 0.05 to 5 | 0.05 to 5 | 0.05 to 5 | 0.05 to 5 | < 0.05
18 | 0.05 to 5 | 1 to 10 | 1 to 10 | O=C1c2c(nc3ccccc3c2OCc2ccc(I)cc2)-c2cccn21 [Compound 575b, 9-((4-iodobenzyl)oxy)-10H-pyrrolizino[1,2-b]quinolin-10-one] | 0.05 to 5 | 0.05 to 5 | 0.05 to 5 | 0.05 to 5 | 0.05 to 5 | 0.05 to 5
19 | 0.05 to 5 | 1 to 10 | 1 to 10 | O=C1c2c(n(Cc3ccccc3I)c3ccccc3c2=O)-c2cccn21 [Compound 576a, 4-(2-Iodobenzyl)-9H-pyrrolizino[1,2-b]quinoline-9,10(4H)-dione] | 0.05 to 5 | 0.05 to 5 | 0.05 to 5 | 0.05 to 5 | 0.05 to 5 | 0.05 to 5
20 | 0.05 to 5 | 1 to 10 | 1 to 10 | O=C1c2c(nc3ccccc3c2OCc2ccccc2I)-c2cccn21 [Compound 576b, 9-((2-iodobenzyl)oxy)-10H-pyrrolizino[1,2-b]quinolin-10-one] | 0.05 to 5 | 0.05 to 5 | 0.05 to 5 | 0.05 to 5 | 0.05 to 5 | 0.05 to 5

From patent publication US11040028B2, “Penicinotam derivative, preparation method and use thereof” (OCEAN UNIVERSITY OF CHINA, priority 2017, dated 2021)
